Laboratory results as given in US7169806B2, “Antidiabetic agents” (Ferring BV, priority 1999, dated 2007).

Tested on: male Zucker Fatty Rats
Experiment: In vivo activity in glucose tolerance model (oral glucose challenge)
Set-up: species or system rat
Settings: mean ± SE, n = 4; for Blood glucose, t = 10: t = 10 minutes; for Blood glucose, t = 20: t = 20 minutes; for Blood glucose, t = 30: t = 30 minutes; for Blood glucose, t = 60: t = 60 minutes; for Blood glucose, t = 120: t = 120 minutes
Experimental: The activity of the compounds was investigated in male Zucker Fatty Rats between 10 and 20 weeks of age. The animals were fasted overnight and then administered with the test compound (10 mg/kg) as a solution by oral gavage. One hour later hour a blood sample (200 μl) is taken from the tail vein to establish a baseline (t=0) glucose level, then the animals are given glucose (1 g/kg as a 40% wt/vol solution) orally. Further blood samples are taken at t=10, 20, 30, 60 and 120 minutes. Glucose is determined by an enzymatic assay.
In a separate experiment the test compound was given at the same dose (10 mg/kg) but 12 hours before the oral glucose challenge.

[1] = 10 mg/kg oral gavage 1 hour before oral glucose (1 g/kg), baseline t = 0
[2] = 10 mg/kg oral gavage 1 hour before oral glucose (1 g/kg)
[3] = 10 mg/kg given 12 hours before the oral glucose challenge

| Structure (SMILES) | Blood glucose, t = 0 [1] | Blood glucose, t = 10 [2] | Blood glucose, t = 20 [2] | Blood glucose, t = 30 [2] | Blood glucose, t = 60 [2] | Blood glucose, t = 120 [2] | AUC (area under the concentration-time curve) of blood glucose [3] | Blood glucose, t = 0 (10 mg/kg given 12 hours before the oral glucose challenge, t = 0) | Blood glucose, t = 10 [3] | Blood glucose, t = 20 [3] | Blood glucose, t = 30 [3] | Blood glucose, t = 60 [3] | Blood glucose, t = 120 [3] |
| --- | --- | --- | --- | --- | --- | --- | --- | --- | --- | --- | --- | --- | --- |
| CC[C@H](C)[C@H](N)C(=O)N1CCC[C@H]1C#N [Reference, (2S)-1-(Isoleucyl)pyrrolidine-2-carbonitrile, reference compound] | 91.4 ± 5.2 mg/dL | 125.8 ± 8.9 mg/dL | 110.0 ± 21.5 mg/dL | 110.9 ± 4.4 mg/dL | 112.2 ± 7.5 mg/dL | 108.7 ± 8.9 mg/dL | – | – | – | – | – | – | – |
| CC(=O)OC(C)OC(=O)N[C@H](C(=O)N1CCC[C@H]1C#N)C(C)(C)C (stereo partly drawn) [Example 1, (2S)-1-((2′S)-2′-(1″-Acetoxyethoxycarbonylamino)-3′,3′-dimethylbutanoyl)pyrrolidine-2-carbonitrile] | – | – | – | – | – | – | 2430 ± 591 | 83.7 ± 3.8 mg/dL | 113.5 ± 10.8 mg/dL | 111.3 ± 9.9 mg/dL | 91.9 ± 11.8 mg/dL | 99.3 ± 10.0 mg/dL | 116.9 ± 14.4 mg/dL |
| CC[C@H](C)[C@H](NC(=O)OC(C)OC(C)=O)C(=O)N1CCC[C@H]1C#N (stereo partly drawn) [Example 2, (2S)-1-(N′-(1″-Acetoxyethoxycarbonyl)isoleucyl)pyrrolidine-2-carbonitrile] | 80.2 ± 4.2 mg/dL | 122.2 ± 7.8 mg/dL | 117.8 ± 4.8 mg/dL | 104.4 ± 5.6 mg/dL | 117.6 ± 6.7 mg/dL | 111.3 ± 12.1 mg/dL | – | – | – | – | – | – | – |
| CC[C@H](C)[C@H](NC(=O)CN)C(=O)N1CCC[C@H]1C#N [Example 5, (2S)-1-(Glycylisoleucyl)pyrrolidine-2-carbonitrile] | 80.5 ± 1.4 mg/dL | 141.3 ± 14.5 mg/dL | 134.2 ± 10.3 mg/dL | 129.2 ± 8.2 mg/dL | 114.6 ± 8.1 mg/dL | 121.2 ± 5.8 mg/dL | – | – | – | – | – | – | – |
| CC[C@H](C)[C@H](NC(=O)OC)C(=O)N1CCC[C@H]1C#N [Example 3, (2S)-1-(N′-(Methoxycarbonyl)isoleucyl)pyrrolidine-2-carbonitrile] | 86.4 ± 3.4 mg/dL | 175.1 ± 3.8 mg/dL | 148.5 ± 23.2 mg/dL | 136.7 ± 16.9 mg/dL | 120.6 ± 8.3 mg/dL | 101.9 ± 4.5 mg/dL | – | – | – | – | – | – | – |
